This series can be described thus: gradient 5% acetonitrile 3 min, to 50% in 2 min, to 85% in 15 min, held 3 min, 100 µL/min. Conditions: column: Zorbax Extend-C18 2.1 x 50 mm; eluents: water / acetonitrile, 0.1% formic acid. Put shortly:
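Standards, all pure, were combined into mixtures of ~100 molecules and run at 100 μL/min on a Zorbax Extend-C18 column (2.1 × 50 mm, 1.8 μm) with water and acetonitrile, each containing 0.1% formic acid. A coupled quadrupole time-of-flight mass spectrometer operated in positive and negative ionization mode. Retention time values come from computationally picked adduct peaks, each inspected manually.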
Regarding `O=C(COc1ccc(Cl)cc1)NCC1CCOCC1`, the RP-LC retention time turned out to be 764 s.

`Cc1ccc(-n2c(=O)n(C)c(=O)c3cc(C(=O)Nc4ccccc4)cnc32)cc1`: the RP-LC retention time amounted to 926 s.

Compound `O=C(Nc1ccc2c(c1)OCO2)c1cn(-c2cc(N3CCCCC3)ncn2)cn1` returned an RP-LC retention time of 936 s.

`Cn1c(=O)sc2cc(S(=O)(=O)N3CCC(C(=O)NCc4ccc(F)cc4)CC3)ccc21` had an RP-LC retention time of 818 s.

Compound `COc1ccc(NC(C)=O)cc1NC(=O)C1CC(=O)N(c2n[nH]c3ccccc23)C1` (centres undefined) came in with an RP-LC retention time of 626 s.

`Cc1[nH]c(C(=O)N2CCCC(C(=O)NCCCN3CCCCCC3)C2)c(C)c1C(=O)OC(C)C` (centres undefined) registered an RP-LC retention time of 650 s.

Take `Cc1c(Cl)cccc1S(=O)(=O)NCC1CCN(C(=O)c2cc3ccccc3o2)CC1`: the RP-LC retention time stood at 934 s.

For the compound `CCN(CC)C(=O)c1ccc2c(c1)nnn2CCNC(=O)Nc1ccc(Br)cc1`, the RP-LC retention time was 779 s.

Consider `O=C(NCCN1CCOCC1)C1CC(=O)N(CCc2c[nH]c3ccc(Cl)cc23)C1` (centres undefined), for which the RP-LC retention time stood at 604 s.

For the compound `O=C(CCCN1C(=O)c2cccc3cccc(c23)C1=O)N1CCN(c2ccccc2)CC1`, the RP-LC retention time stood at 866 s.

Regarding `COc1ccc(-c2noc(-c3nnn4c3COC(c3ccc(C)cc3C)C4)n2)cc1OC` (centres undefined), the RP-LC retention time is 1190 s.

Compound `Cc1noc(C)c1CN1CCC(NC(=O)c2cc(Cl)ccc2F)C1` (centres undefined) showed an RP-LC retention time of 570 s.

As to `CN(C)c1ncccc1C(=O)NC1CCCCC1`, the RP-LC retention time came out at 588 s.

Compound `CCc1nc2cc(N3CCC(C(=O)NC4CCCC4)CC3)cnc2nc1CC` showed an RP-LC retention time of 785 s.

In turn, `Cc1cc(C)cc(NC(=O)Cn2ccc3ccc(-c4nnc(C)o4)cc32)c1` yielded an RP-LC retention time of 1300 s.

Regarding `O=C(N1CCC(Cc2nc(-c3ccc(F)cc3)no2)CC1)C1(c2ccccc2)CC1`, the RP-LC retention time is 1020 s.

Consider `CCCNC(=O)C1CCN(c2ccc(SCC(=O)Nc3cccc(CC)c3)nn2)CC1`, for which the RP-LC retention time worked out at 674 s.

In the case of `O=C(CN1C(=O)NC(c2ccc(Cl)cc2)C2=C1COC2=O)Nc1ccc(Br)cc1F` (centres undefined), the RP-LC retention time is 877 s.

Compound `O=C(N1CCOC(c2ccc(C(F)(F)F)cc2)C1)C1(c2ccc(F)cc2)CC1` (centres undefined) gave an RP-LC retention time of 1020 s.

For the compound `Cc1ccc(-c2noc(-c3cccc(S(=O)(=O)NCCCN4CCCCCC4)c3)n2)cc1`, the RP-LC retention time stood at 832 s.

`Cc1cnc(C(=O)N2CCC(N3C(=O)C4(CCCC4)C3c3scnc3C)CC2)cn1` (centres undefined) showed an RP-LC retention time of 681 s.

In the case of `Cc1cc(NS(=O)(=O)c2ccc(-c3nnc(C4CCC4)o3)o2)ccc1F`, the RP-LC retention time stood at 963 s.

Turning to `CCN1CCN(c2cc(C)c3cc(NC(=S)NCc4ccc5c(c4)OCO5)ccc3n2)CC1`, the RP-LC retention time was determined as 590 s.

`O=c1ccc(-c2ccco2)nn1CCCNS(=O)(=O)/C=C/c1ccccc1` registered an RP-LC retention time of 759 s.

`Cc1ccc(-c2nc(C3CCN(C(=O)C4CC(=O)N(c5ccc(C)c(C)c5)C4)CC3)no2)cc1` (centres undefined) gave an RP-LC retention time of 1070 s.

Regarding `Cc1ccccc1C(=O)Nc1ccc(C(=O)N2CCCC(N(C)C)c3ccccc32)cc1` (centres undefined), the RP-LC retention time came to 712 s.

On to `CC(=O)NCc1nc2ccccc2n1CC(=O)Nc1ccccc1C`, for which the RP-LC retention time worked out at 617 s.

For `S=C1NCCN1c1ccccc1Cl`, the RP-LC retention time turned out to be 702 s.

Compound `Cc1ccc(NC(=O)NCCn2c(-c3ccncc3)nc3cccnc32)c(Cl)c1` gave an RP-LC retention time of 652 s.

Regarding `Cc1cc2[nH]c(C(=O)Nc3cc(F)c(F)cc3F)c(CN3CCOCC3)c2s1`, the RP-LC retention time came to 737 s.

For `CCc1nnc(-c2ccc3ccn(CC(=O)NCc4ccc(OC)c(OC)c4)c3c2)o1`, the RP-LC retention time is 745 s.

Turning to `O=C(Cn1nc2c3cc(-c4ccc(F)cc4)nn3ccn2c1=O)Nc1ccc(Br)cc1F`, the RP-LC retention time is 989 s.

`CCc1nc(OCC(=O)NCc2cc(OC)ccc2OC)c2c(C)c(C)oc2n1` registered an RP-LC retention time of 971 s.

The compound `CCCNC(=O)C1CCCN(c2ccc(SCC(=O)Nc3ccc(C(=O)OCC)cc3)nn2)C1` (centres undefined) yielded an RP-LC retention time of 701 s.

In turn, `CC(CNC(=O)c1cc2c(s1)CN(C1CC1)C2)c1ccccc1` (centres undefined) registered an RP-LC retention time of 731 s.

`Cc1cccc(CNC(=O)c2ccc(CN3CCN(C(C)C)C(=O)C3=O)cc2)c1` had an RP-LC retention time of 714 s.

Consider `COc1ccc(NC(=O)c2cccn2-c2cccnc2)cc1OC`, for which the RP-LC retention time was 678 s.

The compound `COC[C@@H]1CN(S(=O)(=O)c2ccc(F)cc2)C[C@H]1c1ccncc1` registered an RP-LC retention time of 639 s.

The compound `CCN(CC)S(=O)(=O)c1cccc(-c2nnc(-c3ccc(OC)cc3)o2)c1` had an RP-LC retention time of 1020 s.

`Cc1ccccc1OCC(=O)Nc1nnc(C2CC(=O)N(c3ccc(F)cc3)C2)o1` (centres undefined) yielded an RP-LC retention time of 738 s.

As to `COc1ccc(CNC(=O)Nc2ccc(-c3nc(-c4ccccc4)co3)cc2)cc1`, the RP-LC retention time worked out at 1050 s.

For the compound `c1ccc(-c2nc3ncc4c(n3n2)CCCCC4)cc1`, the RP-LC retention time worked out at 892 s.

As to `CC(C)NC(=O)C1CCN(S(=O)(=O)c2cc(C(=O)N3CCCCCC3)cs2)CC1`, the RP-LC retention time is 767 s.

Regarding `Cc1cccc(Cl)c1NC(=O)CN1C(=O)NC2(CCC(C)CC2)C1=O` (centres undefined), the RP-LC retention time worked out at 805 s.

With `O=C(CN1C(=O)CCC1=O)Nc1nnc(-c2ccc(Cl)s2)o1`, the RP-LC retention time was determined as 642 s.

As to `Cc1ccc2cccc(OC(=O)N3CCCCCC3)c2n1`, the RP-LC retention time was 789 s.

`CCCNC(=O)C1CCCN(c2ccc(SCC(=O)NCc3ccc(OC)cc3)nn2)C1` (centres undefined): the RP-LC retention time came to 595 s.

As for `COC(=O)N1CCN(CCNC(=O)NCCCc2ccccc2)CC1`, the RP-LC retention time is 559 s.

The compound `CN(C(=O)Cn1c(=O)oc2ccccc21)C1CCc2nn(C)c(=O)n2CC1` (centres undefined) returned an RP-LC retention time of 633 s.

Turning to `Cc1ccc(-c2cc3n(n2)C(NCCc2cccs2)CNC3=O)cc1` (centres undefined), the RP-LC retention time was 739 s.

For `Cc1ccc(C(=O)Nc2cnc(-c3cccc(Cl)c3)nc2)s1`, the RP-LC retention time was 1140 s.

In turn, `Cn1cc(S(=O)(=O)N2CCC(C(=O)N3CCCCCC3)CC2)cc1C(=O)N1CCCCC1` yielded an RP-LC retention time of 770 s.

With `Cc1oc2c(c1C(=O)NCC1CCN(Cc3ccc(Cl)cc3)CC1)C1=NCCN1C=N2`, the RP-LC retention time was found to be 567 s.

For `Clc1ccc(Nc2c(-c3ccc(N4CCOCC4)cc3)nc3cnccn23)cc1`, the RP-LC retention time amounted to 842 s.

Consider `O=C(Nc1ccccc1Cl)N1CCC(n2c(C(F)(F)F)nc3cccnc32)CC1`, for which the RP-LC retention time was found to be 912 s.

With `CN(C)c1ccc(-c2nc3ncccn3c2NCc2ccccc2)cc1`, the RP-LC retention time was found to be 726 s.

With `Cc1nc(-c2cc3cccc(C)c3nc2N2CCN(c3ccccc3F)CC2)no1`, the RP-LC retention time came to 733 s.

As to `CCC(=O)Nc1ccc(-n2cnc(C(=O)NC3CCC(C)CC3)c2)nc1` (centres undefined), the RP-LC retention time was 710 s.

Compound `N#Cc1cccc(NC(=O)Cn2nc3n(c2=O)CCCCC3)c1` had an RP-LC retention time of 674 s.

`Cn1ncc2c3ccccc3n(CC(=O)NCCN3CCOCC3)c2c1=O`: the RP-LC retention time stood at 592 s.

`CCC(=O)N1CCc2c(C(=O)N3CCN(c4ccccc4OC)CC3)cccc21`: the RP-LC retention time was determined as 786 s.

On to `O=C(CCC1CCCN(S(=O)(=O)c2ccccc2F)C1)NCCN1CCOCC1` (centres undefined), for which the RP-LC retention time stood at 642 s.

Regarding `O=C(Nc1cccc(F)c1)[C@@H]1OCCN(C2CC2)[C@H]1c1ccccc1`, the RP-LC retention time is 675 s.

Turning to `Cc1ccc(N2C=C(C(=O)N3CCC(C)CC3)S(=O)(=O)c3ccccc32)cc1F`, the RP-LC retention time worked out at 974 s.

In turn, `COC(=O)C1C(=O)C2=C(CC1C)NC(C)=C(C(=O)OC(C)C)C2c1cccc(F)c1` (centres undefined) displayed an RP-LC retention time of 951 s.

Take `CCC(C)NC(=O)CN1CCN(C(=O)Nc2ccc(Cl)cc2)CC1=O` (centres undefined): the RP-LC retention time came out at 686 s.

For `Cc1cc(C)n(CCC(=O)NC2CCN(c3ccc(=O)[nH]n3)C2)n1` (centres undefined), the RP-LC retention time worked out at 579 s.

Take `Cn1nc(-c2ccccc2)cc1C(=O)NCCn1nc(-c2ccc(Cl)cc2)ccc1=O`: the RP-LC retention time turned out to be 836 s.

`Cc1ccc(NC(=O)c2cnn3c2CCCC3)c(C)c1` gave an RP-LC retention time of 762 s.

`COc1ccccc1NS(=O)(=O)c1cn(CC(C)C)c2ncccc12` had an RP-LC retention time of 979 s.

`COc1ccc(N2CC(NC(=O)C(=O)c3c[nH]c4ccccc34)CC2=O)cc1` (centres undefined) yielded an RP-LC retention time of 761 s.

`CN1CC2(CCCC2)N(C(=O)COc2ccc(Cl)cc2)CC1=O` gave an RP-LC retention time of 799 s.

For the compound `CCn1ccc2c(cc(C(=O)Nc3ccc(Cl)cc3C)n2C)c1=O`, the RP-LC retention time was 1320 s.

`Cc1nn(CC(=O)NC2CC2)c(=O)c2nc(-c3ccccc3)sc12`: the RP-LC retention time stood at 711 s.

For `O=c1n(CCOc2ccccc2)nc2c(S(=O)(=O)N3CCN(c4ccc(F)cc4)CC3)cccn12`, the RP-LC retention time is 1000 s.

For `Cc1onc(-c2ccccc2)c1C(=O)NC1C(=O)N2C1SC(C)(C)C2C(=O)O` (centres undefined), the RP-LC retention time is 818 s.

`Cc1ccc(Nc2nc(-c3ccc4c(c3)OCO4)cs2)nc1` registered an RP-LC retention time of 863 s.

Take `CCOC(=O)c1ccc(NC(=O)Nc2c(-c3ccncc3)nc3ccccn23)cc1`: the RP-LC retention time is 631 s.

Compound `O=S(=O)(NCc1nc(-c2ccc(NS(=O)(=O)c3ccccc3)cc2)no1)c1ccccc1` yielded an RP-LC retention time of 877 s.

These data come from the METLIN SMRT retention time set (Domingo-Almenara et al. 2019).
